Patent publication US7425557B2, “Inhibitors of glycogen synthase kinase 3” (Novartis Vaccines and Diagnostics, Inc., priority 1998, dated 2008)

Molecular target: human GSK3β (Homo sapiens, UniProt P49841)
Assay: Screening for GSK3 inhibitory activity using a cell-free assay
Format: biochemical
Settings: read-out: IC50 with respect to GSK3
Method in brief: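 Compounds in DMSO were tested against human GSK3β over a three-hour kinase reaction. Radiolabeled phosphate transferred to the peptide was captured on streptavidin plates after EDTA/ATP stop and quantified by scintillation counting. Signal was plotted versus compound concentration.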

Sequence of human GSK3β (P49841 whole entry): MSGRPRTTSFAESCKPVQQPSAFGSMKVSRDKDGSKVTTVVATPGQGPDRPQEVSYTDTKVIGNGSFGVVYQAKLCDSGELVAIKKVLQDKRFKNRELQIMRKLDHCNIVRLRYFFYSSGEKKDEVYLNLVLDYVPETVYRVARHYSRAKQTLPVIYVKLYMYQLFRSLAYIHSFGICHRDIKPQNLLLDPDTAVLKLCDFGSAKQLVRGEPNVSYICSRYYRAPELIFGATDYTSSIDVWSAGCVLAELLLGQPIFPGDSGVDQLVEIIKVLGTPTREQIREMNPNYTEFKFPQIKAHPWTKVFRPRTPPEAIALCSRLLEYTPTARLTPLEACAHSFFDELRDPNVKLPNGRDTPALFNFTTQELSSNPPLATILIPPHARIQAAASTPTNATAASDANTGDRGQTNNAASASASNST

Row | IC50 [µM] | Compound
1 | ≤ 10 | O=C(NCc1ccc(F)c(F)c1)c1ccc(-c2ccnc(NCCNc3ccc([N+](=O)[O-])cn3)n2)cc1 [N-[(3,4-difluorophenyl)methyl]{4-[2-({2-[(5-nitro(2-pyridyl))amino]ethyl}amino)pyrimidin-4-yl]phenyl}carboxamide]
2 | ≤ 10 | CCOC(=O)c1cnc(NCCNc2ccc([N+](=O)[O-])cn2)nc1-c1ccc(F)cc1F [ethyl 4-(2,4-difluorophenyl)-2-({2-[(5-nitro(2-pyridyl))amino]ethyl}amino)pyrimidine-5-carboxylate]
3 | ≤ 1 | N#Cc1ccc(-c2nc(NCCNc3ccc([N+](=O)[O-])cn3)nc(-c3ccoc3)c2C(=O)O)cc1 [4-(4-cyanophenyl)-6-(3-furyl)-2-({2-[(5-nitro(2-pyridyl))-amino]ethyl}amino)pyrimidine-5-carboxylic acid]
4 | ≤ 1 | Cc1nccn1-c1cnc(NCCNc2ccc([N+](=O)[O-])cn2)nc1-c1ccc(Cl)cc1Cl [[4-(2,4-dichlorophenyl)-5-(2-methylimidazolyl)pyrimidin-2-yl]{2-[(5-nitro(2-pyridyl))amino]ethyl}amine]
5 | ≤ 10 | O=C(NCc1cccc(Br)c1)c1ccc(-c2ccnc(NCCCNc3ccc([N+](=O)[O-])cn3)n2)cc1 [N-[(3-bromophenyl)methyl]{4-[2-({3-[(5-nitro(2-pyridyl))-amino]propyl}amino)pyrimidin-4-yl]phenyl}carboxamide]
6 | ≤ 10 | NC(=O)c1ccc(-c2ccnc(NCCOc3ccccc3)n2)cc1 [4-{2-[(2-phenoxyethyl)amino]pyrimidin-4-yl}benzamide]
7 | ≤ 10 | O=C(NCc1cccc([N+](=O)[O-])c1)c1ccc(-c2ccnc(NCCNc3ccc([N+](=O)[O-])cn3)n2)cc1 [{4-[2-({2-[(5-nitro(2-pyridyl))amino]ethyl}amino)pyrimidin-4-yl]phenyl}-N-[(3-nitrophenyl)-methyl]carboxamide]
8 | ≤ 10 | NC(=O)c1ccc(-c2ccnc(NCc3ccc(N)cc3)n2)cc1 [4-(2-{[(4-aminophenyl)methyl]amino}-pyrimidin-4-yl)benzamide]
9 | ≤ 1 | Nc1nc(NCCNc2ncc(N3C(=O)CC(N4CCOCC4)C3=O)c(-c3ccc(Cl)cc3Cl)n2)ccc1[N+](=O)[O-] (stereo not drawn) [1-[2-({2-[(6-amino-5-nitro(2-pyridyl))amino]ethyl}amino)-4-(2,4-dichlorophenyl)pyrimidin-5-yl]-3-morpholin-4-ylpyrrolidine-2,5-dione]
10 | ≤ 1 | CCOC(=O)c1cnc(NCCNc2ccc([N+](=O)[O-])cn2)nc1-c1ccc(-c2nnn[nH]2)cc1 [ethyl 4-(4-(1H-1,2,3,4-tetraazol-5-yl)phenyl)-2-({2-[(5-nitro(2-pyridyl))amino]ethyl}amino)pyrimidine-5-carboxylate]
11 | ≤ 1 | O=[N+]([O-])c1ccc(NCCN(CCN2CCCC2)c2ncc(-n3ccnc3)c(-c3ccc(Cl)cc3Cl)n2)nc1 [[4-(2,4-dichlorophenyl)-5-imidazolylpyrimidin-2-yl]{2-[(5-nitro(2-pyridyl))amino]ethyl}(2-pyrrolidinylethyl)amine]
12 | ≤ 1 | Cc1cn(-c2cnc(NCCNc3ccc([N+](=O)[O-])c(N)n3)nc2-c2ccc(Cl)cc2Cl)c(C)n1
13 | ≤ 10 | CCOC(=O)c1cnc(NCCc2ccccn2)nc1-c1ccco1 [ethyl 4-(2-furyl)-2-[(2-(2-pyridyl)ethyl)amino]pyrimidine-5-carboxylate]
14 | ≤ 10 | Cc1cccc(CNC(=O)c2ccc(-c3ccnc(NCCNc4ccc([N+](=O)[O-])cn4)n3)cc2)c1 [N-[(3-methylphenyl)methyl){4-[2-({2-[(5-nitro(2-pyridyl))amino]ethyl}amino)pyrimidin-4-yl]phenyl}carboxamide]
15 | ≤ 10 | CCc1cnc(NCCNc2ccccn2)nc1-c1ccccc1
16 | ≤ 1 | Cn1ccnc1-c1cnc(NCCNc2ccc([N+](=O)[O-])cn2)nc1-c1ccc(Cl)cc1Cl [[4-(2,4-dichlorophenyl)-5-(1-methylimidazol-2-yl)pyrimidin-2-yl]{2-[(5-nitro(2-pyridyl))amino]-ethyl}amine]
17 | ≤ 10 | O=C(O)c1c(-c2ccncc2)nc(NCCNc2ccc([N+](=O)[O-])cn2)nc1-c1ccc([N+](=O)[O-])cc1 [2-({2-[(5-nitro(2-pyridyl))amino]ethyl}amino)-6-(4-nitrophenyl)-4-(4-pyridyl)pyrimidine-5-carboxylic acid]
18 | ≤ 10 | O=C(NCc1cccc(Cl)c1)c1ccc(-c2ccnc(NCCNc3ccc([N+](=O)[O-])cn3)n2)cc1 [N-[(3-chlorophenyl)methyl]{4-[2-({2-[(5-nitro(2-pyridyl))amino]ethyl}amino)pyrimidin-4-yl]-phenyl}carboxamide]
19 | ≤ 1 | CCOC(=O)c1cnc(NCCNc2ccc([N+](=O)[O-])cn2)nc1-c1ccc([N+](=O)[O-])cc1
20 | ≤ 10 | CCOC(=O)c1cnc(NCCNc2ccc3ccccc3n2)nc1-c1ccc(C#N)cc1 [ethyl 4-(4-cyanophenyl)-2-{[2-(2-quinolylamino)ethyl]amino}pyrimidine-5-carboxylate]
21 | ≤ 1 | CCOC(=O)c1cnc(NCCNc2ccc([N+](=O)[O-])cn2)nc1-c1ccc(F)c(F)c1 [ethyl 4-(3,4-difluorophenyl)-2-({2-[(5-nitro(2-pyridyl))amino]ethyl}amino)pyrimidine-5-carboxylate]
22 | ≤ 1 | N#Cc1ccc(-c2nc(NCCNc3ccc([N+](=O)[O-])cn3)nc(-c3ccccc3)c2C(=O)O)cc1 [4-(4-cyanophenyl)-2-({2-[(5-nitro(2-pyridyl))amino]ethyl}amino)-6-phenylpyrimidine-5-carboxylic acid]
23 | ≤ 10 | NC(=O)c1ccc(-c2ccnc(NCc3cccc(-c4cccc(C(F)(F)F)c4)c3)n2)cc1 [4-{2-[({3-[3-(trifluoromethyl)phenyl]phenyl}methyl)amino]pyrimidin-4-yl}benzamide]
24 | ≤ 10 | Cc1cccc(OCCCNc2nccc(-c3ccc(C(N)=O)cc3)n2)c1 [4-(2-{[3-(3-methylphenoxy)propyl]amino}pyrimidin-4-yl)benzamide]
25 | ≤ 10 | NC(=O)c1ccc(-c2ccnc(NCCc3ccc(F)cc3)n2)cc1 [4-(2-{[2-(4-fluorophenyl)ethyl]amino}pyrimidin-4-yl)benzamide]
26 | ≤ 1 | N#Cc1ccc(NCCNc2ncc(-n3cc(Cl)ccc3=O)c(-c3ccc(Cl)cc3Cl)n2)nc1
27 | ≤ 10 | c1ccc(NCCNc2nccc(-c3cccnc3)n2)nc1 [[2-(2-pyridylamino)ethyl](4-(3-pyridyl)pyrimidin-2-yl)amine]
28 | ≤ 10 | CCOC(=O)c1cnc(NCCNc2ccc(C(=O)OC(C)(C)C)cn2)nc1-c1ccc(C#N)cc1 [tert-butyl 6-[(2-{[4-(4-cyanophenyl)-5-(ethoxycarbonyl)pyrimidin-2-yl]amino}ethyl)amino]pyridine-3-carboxylate]
29 | ≤ 10 | O=[N+]([O-])c1ccc(NCCNc2nccc(-c3ccc(S(=O)(=O)NCc4cccc(Br)c4)cc3)n2)nc1 [[(3-bromophenyl)methyl]({4-[2-({2-[(5-nitro(2-pyridyl))amino]ethyl}-amino)pyrimidin-4-yl]phenyl}sulfonyl)amine]

Row | Compound | IC50 [µM]
30 | O=C(O)c1c(-c2ccc([N+](=O)[O-])cc2)nc(NCCNc2ccc([N+](=O)[O-])cn2)nc1-c1cccc([N+](=O)[O-])c1 [2-({2-[(5-nitro(2-pyridyl))amino]ethyl}amino)-4-(3-nitrophenyl)-6-(4-nitrophenyl)pyrimidine-5-carboxylic acid] | ≤ 10
